Results published in US20130344501A1, “METHODS FOR PRODUCING THREE-DIMENSIONAL PHYSIOLOGICALLY RELEVANT IMMUNE TISSUE SYSTEMS UNDER LOW FLUID SHEAR CONDITIONS” (priority 2010, published 2013).

Tests used:
[1] = test system: U937 cells in A549-U937 3-D co-culture; assay: Viability of U937 macrophage-like cells (CD45 positive) in the three-dimensional A549-U937 co-culture after exposure to 3-oxo-C12 HSL; type: cell-based, human; settings: for Percentage viability, A549-U937 3-D, U937: U937 co-cultured three-dimensionally with A549, 20 hour exposure
Procedure: (§1) A549 three-dimensional aggregates were grown as described above and after 9 days of three-dimensional A549 cultivation, undifferentiated U937 monocytes were added to the HARV as follows. three-dimensional A549 cells were counted by trypsinization of an aggregate sample and U937 cells (grown in T75 flasks) were added in a 1:1 ratio to the three-dimensional A549 culture. A549 and U937 cells were co-cultured in the HARV at 20 rpm for 72 h. After addition of the monocytes, culture medium was changed after 48 hours of co-cultivation where after medium was replenished every 24 hours.
(§2) Assessment of live-, apoptotic-, and necrotic cell populations was performed with the annexin V-propidium iodide (PI) kit for flow cytometry analysis (ImmunoSource) according to the manufacturer's instructions.
(§3) Stained cell suspensions were analyzed with an EPICS XL flow cytometer (Beckman-Coulter) or a Cytomics FC 500 system (Beckman-Coulter), equipped with an argon laser and filters for adequate excitation of the chosen fluorophores. Forward scatter, side scatter, FITC-, PI and PE-Cy5 emissions were measured and a total of 10,000 cells were recorded for each sample. The respective cell populations were delimited to eliminate background signals originating from cell debris. To assess background fluorescent signals from the tested cell populations, non-stained samples were included.
three-dimensional co-cultures of A549 and U937 cells (as described above) were stained for CD45, since this marker specifically stains leukocytes.
(§4) After 72 hours of co-cultivation, aggregates containing 2×10^6 cells were seeded into 6-well plates containing fresh medium (5 ml total volume). Subsequently, aggregates were spiked with 5, 10 or 100 μM 3-oxo-C12 HSL (Sigma-Aldrich) (starting from a 20 mM stock solution in DMSO, stored at −20° C.). Equal volumes of DMSO, containing the respective amounts of 3-oxo-C12 HSL, were added to each well (25 μl) and a solvent control (25 μl DMSO) was included in each experiment. Six-well plates were placed at 37° C. in a 5% CO2 environment and incubated for 20 hours. For exposure assays of monocytes to 3-oxo-C12 HSL, 2×10^6 U937 cells/well were transferred in 6-well plates. To assess the influence of 3-oxo-C12 HSL on monocytes cultured on microcarrier beads, collagen I-coated beads were added to the cells at the same concentration as for seeding three-dimensional cultures (1 bead per 2500 cells). Subsequently, monocyte cultures (with or without microcarrier beads) were spiked with 3-oxo-C12 HSL (see above). A solvent control was included. After 20 hours incubation, cells were processed for flow cytometry analysis. Cell viability was assayed with trypan blue (0.4%) (Sigma) and/or with the annexin V-PI kit (ImmunoSource) (see above). […] FIG. 9B are examples of the three-dimensional A549-U937 co-culture model exposed to 100 μM 3-oxo-C12 HSL and to the solvent control DMSO. The presented cell population is gated for CD45 positive cells and thus only includes monocytes/macrophages. For FIGS. 9A-B, “I” represents the percentage of dead cells, while “H” is the viable cell population. Consequently, cell viability was further assessed based on the shift in forward scatter signal (see Table 1).

[2] = test system: ICAM-1 signal of the macrophage-like cells (U937, CD45 positive); assay: ICAM-1 signal of macrophage-like cells in the three-dimensional A549-U937 co-culture exposed to 3-oxo-C12 HSL, flow cytometry; type: cell-based, human; settings: 100 μM; 20 hours; p<0.01; mean ± SD, N=3
Text: (§5) Mouse anti-human CD45 (Invitrogen) and ICAM-1 (Invitrogen) conjugated with phycoerythrin (PE)-Cy5 and FITC respectively were used for flow cytometry staining. Sample preparation and fluorescent staining of cells. Cells were rinsed 2 times with pre-warmed HBSS (Invitrogen), detached from microcarrier beads/culture flasks with 0.25% trypsin-EDTA (Invitrogen) and counted using a hemocytometer. For inclusion of cells detached from the microcarrier beads (three-dimensional A549 and three-dimensional A549-U937 co-cultures) in the frame of QS exposure studies (see below), whole cultures (both aggregates and bulk liquid) were centrifuged at 1200 rpm for 6 min for each washing step. […]
(§6) Stained cell suspensions were analyzed with an EPICS XL flow cytometer (Beckman-Coulter) or a Cytomics FC 500 system (Beckman-Coulter), equipped with an argon laser and filters for adequate excitation of the chosen fluorophores. Forward scatter, side scatter, FITC-, PI and PE-Cy5 emissions were measured and a total of 10,000 cells were recorded for each sample. […]
(§7) After 72 hours of co-cultivation, aggregates containing 2×10^6 cells were seeded into 6-well plates containing fresh medium (5 ml total volume). […] Consequently, cell viability was further assessed based on the shift in forward scatter signal (see Table 1).

A549 3-D = assay: Cell viability of three-dimensional A549 monotypic cultures after exposure to 3-oxo-C12 HSL, flow cytometry; type: cell-based, human; settings: for Percentage viability, A549 3-D: A549 exposed alone, 20 hour exposure
Procedure: The three-dimensional A549 monotypic cultures were made as previously described (Carterson et al., 2005).
as §2, §3, §4

U937 cultures = type: in vitro ADME, human; settings: compared to three-dimensional A549 and A549-U937 cultures
Procedure: (§8) Following exposure of three-dimensional cultures and monocytes to 3-oxo-C12 HSL, cell-free samples were taken and stored at −20° C. at indicated time points. The remaining 3-oxo-C12 HSL concentration was assessed as previously described (Crabbé et al., 2008) using the indicator strain E. coli harboring the reporter plasmid pUCP22NotI-PlasB::gfp(ASV)Plac::lasR (Hentzer et al., 2002). A 3-oxo-C12 HSL standard series was included ranging from 1.63 to 100 μM. Culture medium containing microcarrier beads was used as a control to normalize for bioadsorption.

[3] = test system: three-dimensional A549 and three-dimensional A549-U937 cultures; type: in vitro ADME, human; settings: original concentration 100 μM
Procedure: as §8

[4] = test system: A549 cells in A549-U937 3-D co-culture; assay: Viability of A549 epithelial cells in the three-dimensional A549-U937 co-culture after exposure to 3-oxo-C12 HSL; type: cell-based, human; settings: A549 co-cultured three-dimensionally with U937, 20 hour exposure
Procedure: as §1, §2, §3
After 72 hours of co-cultivation, aggregates containing 2×10^6 cells were seeded into 6-well plates containing fresh medium (5 ml total volume). Subsequently, aggregates were spiked with 5, 10 or 100 μM 3-oxo-C12 HSL (Sigma-Aldrich) (starting from a 20 mM stock solution in DMSO, stored at −20° C.). Equal volumes of DMSO, containing the respective amounts of 3-oxo-C12 HSL, were added to each well (25 μl) and a solvent control (25 μl DMSO) was included in each experiment. Six-well plates were placed at 37° C. in a 5% CO2 environment and incubated for 20 hours. […] Consequently, cell viability was further assessed based on the shift in forward scatter signal (see Table 1).

U937 cells = settings: this and other studies (Tateda 2003, Kravchenko 2006, Li 2009); cited from earlier work
[5] = test system: ICAM-1 expression of A549 cells (derived from the three-dimensional A549-U937 co-culture); assay: ICAM-1 expression of A549 cells from the three-dimensional A549-U937 co-culture exposed to 3-oxo-C12 HSL, flow cytometry; type: cell-based, human
Text: as §5, §6, §7

CCCCCCCCCC(=O)CC(=O)N[C@H]1CCOC1=O [3-oxo-C12 HSL, N-(3-oxododecanoyl)-Lhomoserine lactone]
macrophage cell death with inclusion of all detached cells ([1]; 100 μM versus DMSO control): no difference in macrophage cell death
decrease of the ratio of U937 cells to the total cell population in three-dimensional A549-U937 aggregates ([1]; 100 μM, compared to the non-exposed control): 37±5%
viability of macrophage-like U937 cells co-cultured with A549 in three-dimensional ([1]; 100 μM, up to 20 hours): minimally affected in viability
death in the attached macrophage-like cell population of the co-culture ([1]; 5 and 10 μM, compared to the control): did not induce increased death
Percentage viability, A549-U937 3-D, U937 ([1]; 5 μM): 97.1 ± 0.01%
Percentage viability, A549-U937 3-D, U937 ([1]; 10 μM): 99.3 ± 0.01%
Percentage viability, A549-U937 3-D, U937 ([1]; 100 μM): 93.8 ± 0.03%
cell death in three-dimensional co-cultured monocytes/macrophages with alveolar epithelium ([1]; concentrations up to 100 μM, either of the cell populations): did not induce cell death
increase in the ICAM-1 signal compared to the control samples [2]: 2.93±0.79 fold
cell death in A549 three-dimensional monotypic cultures (A549 3-D; 5, 10 and 100 μM): did not induce cell death
Percentage viability, A549 3-D (A549 3-D; 5 μM): 97.7 ± 0.00%
Percentage viability, A549 3-D (A549 3-D; 10 μM): 97.8 ± 0.00%
Percentage viability, A549 3-D (A549 3-D; 100 μM): 94.9 ± 0.02%
change of 3-oxo-C12 HSL concentration over time (U937 cultures): minimal differences in 3-oxo-C12 HSL concentration over time
remaining fraction of the original 3-oxo-C12 HSL concentration ([3]; after 2 hours of exposure): 30%
residual 3-oxo-C12 HSL ([3]; after 20 hours of exposure): no residual 3-oxo-C12 HSL could be detected
Percentage viability, A549-U937 3-D, A549 ([4]; 5 μM): 90.3 ± 0.01%
Percentage viability, A549-U937 3-D, A549 ([4]; 10 μM): 92.6 ± 0.00%
Percentage viability, A549-U937 3-D, A549 ([4]; 100 μM): 84.3 ± 0.00%
concentrations at which apoptosis is induced in pure cultures of monocytes and macrophages (U937 cells): above 25 μM
ICAM-1 expression increase compared to the solvent control ([5]; 100 μM, 20 hours, p<0.01, mean ± SD, N=3): 1.66±0.11 fold
ICAM-1 expression ([5]; lower concentrations of the QS molecule): did not affect ICAM-1 expression
